Patent US20190290685A1, “COMPOSITIONS AND ASSOCIATED METHODS OF MESOPOROUS NANOPARTICLES COMPRISING PLATINUM-ACRIDINE MOLECULES” (Wake Forest University, priority 2016, published 2019)
“Also recorded” adds a separate entry of the source.

What was measured:
[1] = test system: BxPC3 pancreatic cancer cells; assay: Confocal fluorescence microscopy, uptake and subcellular distribution; format: cell-based, human; settings: BxPC3, 5 μM P1A1 or equivalent, 1 h and 12 h
Procedure: BxPC3 cells were seeded onto chamber slides (Nunc, Rochester, N.Y.) and allowed to attach for 48 h. Cells were then treated with 5 μM P1A1, P1A1@MSNLP-COOH-LIP10 at an equivalent concentration of drug, or vehicle. The medium was aspirated and cells were co-stained by incubating with 75 nM Lysotracker Red in complete medium for 1 h. Cells were washed 3× with PBS and fixed in 4% formaldehyde/PBS for 15 min. After another three PBS washes, cover slips were mounted onto 4-well chamber slides using vectashield HardSet mounting medium (Vector Labs, Burlingame, Calif.) and stored at 4° C. until ready to use. Images were collected using a Zeiss LSM 710 confocal microscope (Carl Zeiss MicroImaging, Thornwood, N.Y.) using a 63× (PLAN Oil APO, 1.4 NA) objective lens. All image channels were acquired in a sequential mode to minimize excitation cross talk and emission bleed-through. […] For comparative fluorescence intensity analysis, great care was taken to equalize excitation power, pinhole settings, PMT gain, and offset values across and within imaging sessions for each respective channel. […] Where necessary, post-acquisition contrast adjustments were applied to the entire image, and processing was identical in all fluorescence channels. […]

BxPC3 cells = assay: Flow cytometry cell cycle analysis; format: cell-based, human; settings: BxPC3, 48 h, micromolar-to-submicromolar concentrations; dinitrate salt
Procedure: BxPC3 cells were treated with P1A1@MSNLP-COOH-LIP10, P1A1, or MSNLP-COOH-LIP10 for 48 h at the indicated concentrations. Cells were gently trypsinized, washed in PBS, fixed in ice-cold EtOH:PBS (1:1) at equivalent cell concentrations, and stored at −20° C. Cells were washed with PBS, stained using FxCycle PI/RNase staining solution (Molecular Probes, Eugene, Oreg.) and assessed by flow cytometry using an Accuri C6 (BD Biosciences, San Jose, Calif.). Data was analyzed using Modfit software v3.3.

Substance: [PtCl(en)(N-[acridin-9-ylaminoethyl]-N-methylpropionamidine)] dinitrate salt [Compound P1A1]
- uptake and subcellular distribution [1]: accumulates rapidly (about 1 h) in cells to produce blue fluorescence associated with the entire cytoplasm and, to a lesser extent, the nuclear region
- effect on cell cycle distribution (BxPC3 cells): robust S phase arrest; also recorded: sub-G1 population at the highest dose
